These results are taken from patent US20240060131A1, “METHOD FOR IDENTIFYING AND/OR REGULATING SENESCENCE” (INSTITUTE OF ZOOLOGY, CHINESE ACADEMY OF SCIENCES, priority 2020, published 2024).

“Also recorded” adds a separate entry of the source.

Format in all cases: cell-based, human
Test [1] concerns HERVK. Kind of test: RT-qPCR and Western blot of HERVK and senescence markers in hMPCs after HERVK activation or 5-AZA treatment. To be noted: RT-qPCR. As for the experimental part:
(§1) Cells were lysed in 1×SDS buffer (100 mM Tris-HCl, pH 6.8, 10% glycerol, 2% SDS and 2%2-mercaptoethanol), boiled for 10 min at 105° C. Protein concentration was measured by BCA kit. Cell lysate was subjected to SDS-PAGE electrophoresis, then transferred to PVDF membrane (Millipore). The membrane was incubated with primary antibody, incubated with secondary antibody conjugated to HRP after washing, then blotted with substrate, the substrate was the mixture of 1000 μL substrate A and 3 μL substrate B (substrate A: 0.2 mM cumaric acid, 1.25 mM luminal, 0.1 M Tris-HCl, pH 8.5; substrate B: 3% H2O2) or Super Signal West Femto Maximum Sensitivity Substrate (Thermo Fisher Scientific). Images were taken by Image Lab software. Quantification was conducted by ImageJ.
(§2) In accordance with the manufacturer's instructions, total RNA of cell was extracted by TRIzol (Thermo Fisher Scientific); reverse transcribed into cDNA with GoScript reverse transcription system (Promega) for RT-qPCR; RT-qPCR was conducted with THUNDERBIRD qPCR Mix (TOYOBO) and CFX384 real-time system (Bio-Rad Laboratories, Inc.).
To activate endogenous HERVK, non-targeted control or lentivirus construct with HERVK LTR targeted sgRNA was cloned to lenti-SAM v2 (addgene #75112) through ESP3I site, and co-transfected with lenti-MPH v2 (addgene #89308). […]
HERVK-activated cell was analyzed by RT-qPCR and Western blot. […]
On the technique in general: Real-time PCR tracks product formation cycle by cycle.

Test [2] relates to hMPCs. Kind of test: Analysis of classical aging characteristics (SA-β-gal, Ki67, clonal expansion) in hMPCs. To be noted: hMPCs after HERVK activation or 5-AZA treatment. As for the experimental part: Cells seeded on coverslip (Thermo Fisher Scientific) were washed by PBS, fixed in 4% paraformaldehyde (PFA), permeabilized in 0.4% Triton X-100, blocked by 10% donkey serum. The coverslip was incubated with primary antibody at 4° C. in blocking buffer, then incubated with secondary antibody at room temperature for 1 h. Nucleus was labelled by Hoechst 33342 (Invitrogen).
(§3) For 5-azacytidine (5-AZA) treatment, hMPCs were seeded (generation 0 (P0) after treatment), and treated by […] 5-AZA for 4 days, followed by passage and culture in fresh medium. At P2 after treatment (6 days after 5-AZA treatment), cells was used for Ki67 immunofluorescence, SA-O-gal staining and RNA/DNA extraction.
For lentivirus transduction, hMPCs were seeded (P0 after treatment) and incubated with lentivirus in the presence of polybrene (Sigma-Aldrich) for 24 h. After two passages, treated cells were used for Ki67 immunofluorescence, SA-β-gal staining and RNA/DNA extraction.
5 thousand cells were seeded in one well of 6-well plate (Corning) cover with gelatin (Sigma), and cultured for about 10 days. Cells were fixed by 4% PFA, stained by 10% crystal violet for 30 min. Relative cell integral density was calculated by ImageJ software.
Cells were fixed by a buffer containing 2% (w/v) formaldehyde and 0.2% (w/v) glutaraldehyde for 5 min, and treated by staining buffer containing 1 mg/mL X-gal at 37° C. overnight.
In particular, relative percentage of cells positive for senescence associated β-galactosidase (SA-β-gal) was increased, the number of Ki67 positive cells was decreased and the clonal expansion ability was reduced (as shown by FIGS. 12C-12E).

The test system of test [3] is cGAS-STING pathway. Description: cGAS-STING innate immune pathway and SASP in hMPCs (Western blot, RT-qPCR). To be noted: hMPCs with activated endogenous HERVK. As for the experimental part: as §1, §2
To further study the activation of cGAS-STING DNA sensing pathway, the following key characteristics in different senescent hMPCs (including RS, HGPS and WS) and fibroblasts were detected: […] TANK binding kinase 1 (TBK1) and IFN regulating factor 3 (IRF3) as well as proinflammatory cytokines (e.g., IL1B andIL6), these factors were regarded as SASP factors.
In general terms: A western blot detects proteins with antibodies after separation by electrophoresis.

The subject of test [4] is HERVK-LTR5HS. Description: ChIP-qPCR of 5 mC occupation in HERVK-LTR5HS in treated hMPCs. The following applies: hMPCs of early passage; vs cells not treated. Here is the method: as §3
Cells were fixed in 1% formaldehyde dissolved in PBS at room temperature for 10 min, and then, quenched by 125 mM glycine. Cells were lysed on ice for 10 min, and subjected to ultrasonic treatment with Covaris S220. Collected supernatant was incubated with Dynabeads Protein A (Life Technologies, 10001D) pre-mixed with 2.3 μg specified antibody at 4° C. overnight. After washing, samples were digested by Protease K (New England Biolabs), eluted and cross-link-reversed on thermal mixer at 68° C. for 2 h. DNA was extracted with phenol-chloroform-isoamylol, and eluted DNA was analyzed by qPCR.
5-AZA (a DNA methyltransferase inhibitor (DNMTi)) was used to treat hMPCs of early passage. ChIP-qPCR and RT-qPCR analyses were performed on treated cells, cells not treated by 5-AZA were used as control.

In the case of `Nc1ncn([C@@H]2O[C@H](CO)[C@@H](O)[C@H]2O)c(=O)n1` [5-AZA, 5-azacytidine], the “senescence marker p16INK4a level” value in test [1] is “increased”. Besides, the “HERVK RNA level” value in test [1] (vs untreated or non-targeting sgRNA control) is listed as “increase”. Also, in test [2], the SA-β-gal positive cells result is reported as “increased”, the “cell senescence (overall)” value is “caused premature senescence; also recorded: induces senescence”, the clonal expansion ability result is “reduced” and the “number of Ki67 positive cells” value is given as “decreased”. Also, in test [3], the “expression of SASP cytokine” value is listed as “up-regulated”, the “level of phosphorylated IRF3” value is “increased”, the “level of phosphorylated RelA” value was “increased” and the “level of phosphorylated TBK1” value was “increased”. Further, in test [4], the “5 mC occupation in HERVK-LTR5HS” value was “reduce; also recorded: decrease”.
